Test results: ChEMBL document CHEMBL5291721, “A preclinical secondary pharmacology resource illuminates target-adverse drug reaction associations of marketed drugs” (Nat Commun, 2023)
“And” between values parts separate entries of the source, which are not always exact repeats. Equal entries are not always repeated.

Legend:
Histamine H2 receptor = Histamine H2 receptor (Homo sapiens, UniProt P25021); format: functional, cell-based
[1] = target: T1, Alpha-2C adrenergic receptor (Homo sapiens, UniProt P18825); format: functional
T1 sequence (P18825 whole entry): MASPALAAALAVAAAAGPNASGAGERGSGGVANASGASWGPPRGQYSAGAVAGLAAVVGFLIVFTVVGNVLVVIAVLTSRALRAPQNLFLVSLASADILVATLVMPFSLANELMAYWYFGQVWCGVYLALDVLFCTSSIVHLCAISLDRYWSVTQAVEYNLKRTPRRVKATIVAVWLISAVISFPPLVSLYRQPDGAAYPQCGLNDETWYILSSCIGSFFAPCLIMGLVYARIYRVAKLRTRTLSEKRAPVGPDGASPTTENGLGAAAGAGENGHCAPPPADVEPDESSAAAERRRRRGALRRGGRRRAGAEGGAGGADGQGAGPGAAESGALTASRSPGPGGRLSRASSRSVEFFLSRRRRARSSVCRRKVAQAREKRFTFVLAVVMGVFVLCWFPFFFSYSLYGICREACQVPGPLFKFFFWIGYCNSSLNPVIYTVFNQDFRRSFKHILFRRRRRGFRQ

Adenosine receptor A2a = Adenosine receptor A2a (Homo sapiens, UniProt P29274)
[2] = target: 3',5'-cyclic-AMP phosphodiesterase 4D (Homo sapiens, UniProt Q08499); format: functional
Motilin receptor = Motilin receptor (Homo sapiens, UniProt O43193)
[3] = target: T2, Type-1 angiotensin II receptor (Homo sapiens, UniProt P30556)
T2 sequence (P30556 whole entry): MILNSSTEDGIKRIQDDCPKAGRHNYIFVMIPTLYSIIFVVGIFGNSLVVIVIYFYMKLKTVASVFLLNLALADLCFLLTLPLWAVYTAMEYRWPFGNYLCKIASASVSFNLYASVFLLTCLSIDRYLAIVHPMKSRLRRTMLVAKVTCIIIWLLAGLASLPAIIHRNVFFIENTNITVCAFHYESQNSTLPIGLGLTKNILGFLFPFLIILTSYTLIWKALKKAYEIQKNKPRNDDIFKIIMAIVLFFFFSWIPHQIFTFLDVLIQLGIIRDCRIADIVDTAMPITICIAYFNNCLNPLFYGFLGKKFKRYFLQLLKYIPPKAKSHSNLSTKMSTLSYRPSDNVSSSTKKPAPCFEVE

[4] = target: Sodium-dependent noradrenaline transporter (Homo sapiens, UniProt P23975)
Adenosine receptor A3 = target: T3, Adenosine receptor A3 (Homo sapiens, UniProt P0DMS8)
T3 sequence (P0DMS8 whole entry): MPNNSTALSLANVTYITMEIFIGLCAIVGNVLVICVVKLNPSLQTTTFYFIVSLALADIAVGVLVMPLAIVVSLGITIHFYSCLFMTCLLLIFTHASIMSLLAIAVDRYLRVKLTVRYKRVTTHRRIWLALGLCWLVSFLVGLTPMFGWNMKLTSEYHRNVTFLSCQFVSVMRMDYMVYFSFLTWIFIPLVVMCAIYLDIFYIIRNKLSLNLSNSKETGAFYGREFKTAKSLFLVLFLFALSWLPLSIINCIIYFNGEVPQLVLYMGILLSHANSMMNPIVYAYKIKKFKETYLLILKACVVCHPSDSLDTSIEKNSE

[5] = target: Neuronal acetylcholine receptor subunit alpha-4 (Homo sapiens, UniProt P43681)
[6] = target: T4, 5-hydroxytryptamine receptor 3A (Homo sapiens, UniProt P46098); format: functional
T4 sequence (P46098 whole entry): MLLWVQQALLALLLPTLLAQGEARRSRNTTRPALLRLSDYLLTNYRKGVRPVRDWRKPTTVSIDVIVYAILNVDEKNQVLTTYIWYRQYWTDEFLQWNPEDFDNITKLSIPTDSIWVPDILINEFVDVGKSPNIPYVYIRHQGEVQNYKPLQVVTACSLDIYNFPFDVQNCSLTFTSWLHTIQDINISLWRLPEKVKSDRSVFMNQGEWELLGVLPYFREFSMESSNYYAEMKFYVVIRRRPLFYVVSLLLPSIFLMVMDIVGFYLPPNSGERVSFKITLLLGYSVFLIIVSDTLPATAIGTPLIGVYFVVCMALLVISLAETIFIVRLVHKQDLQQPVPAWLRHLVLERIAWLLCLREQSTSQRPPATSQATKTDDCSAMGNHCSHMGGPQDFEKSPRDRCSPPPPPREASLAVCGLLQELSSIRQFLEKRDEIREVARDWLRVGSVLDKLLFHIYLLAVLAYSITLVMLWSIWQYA

[7] = target: T5, Neuropeptide Y receptor type 1 (Homo sapiens, UniProt P25929); settings: read-out: AC50
T5 sequence (P25929 whole entry): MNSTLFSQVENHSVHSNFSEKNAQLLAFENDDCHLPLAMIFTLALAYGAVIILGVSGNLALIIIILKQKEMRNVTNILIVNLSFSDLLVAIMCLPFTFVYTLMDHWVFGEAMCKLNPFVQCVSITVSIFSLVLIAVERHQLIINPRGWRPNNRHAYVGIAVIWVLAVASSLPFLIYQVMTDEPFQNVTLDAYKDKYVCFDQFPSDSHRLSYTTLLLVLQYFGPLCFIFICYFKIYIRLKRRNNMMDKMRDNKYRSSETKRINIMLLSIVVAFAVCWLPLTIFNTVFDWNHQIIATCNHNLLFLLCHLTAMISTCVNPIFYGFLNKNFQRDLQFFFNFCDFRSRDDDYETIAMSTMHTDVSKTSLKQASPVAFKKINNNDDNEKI

Thromboxane A2 receptor = target: T6, Thromboxane A2 receptor (Homo sapiens, UniProt P21731)
T6 sequence (P21731 whole entry): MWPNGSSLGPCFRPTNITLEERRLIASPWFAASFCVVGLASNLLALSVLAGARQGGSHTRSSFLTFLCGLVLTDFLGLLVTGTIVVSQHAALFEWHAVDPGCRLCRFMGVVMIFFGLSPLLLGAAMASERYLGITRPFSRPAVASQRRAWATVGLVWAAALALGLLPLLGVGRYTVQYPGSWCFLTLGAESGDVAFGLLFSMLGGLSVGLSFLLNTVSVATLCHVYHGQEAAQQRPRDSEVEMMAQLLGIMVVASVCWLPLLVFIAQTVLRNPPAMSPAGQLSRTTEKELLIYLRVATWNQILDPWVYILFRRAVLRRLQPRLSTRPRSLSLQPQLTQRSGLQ

[8] = target: Growth hormone secretagogue receptor type 1 (Homo sapiens, UniProt Q92847)
Note: assay procedure not described here.

Chain of Histamine H2 receptor (P25021 whole entry): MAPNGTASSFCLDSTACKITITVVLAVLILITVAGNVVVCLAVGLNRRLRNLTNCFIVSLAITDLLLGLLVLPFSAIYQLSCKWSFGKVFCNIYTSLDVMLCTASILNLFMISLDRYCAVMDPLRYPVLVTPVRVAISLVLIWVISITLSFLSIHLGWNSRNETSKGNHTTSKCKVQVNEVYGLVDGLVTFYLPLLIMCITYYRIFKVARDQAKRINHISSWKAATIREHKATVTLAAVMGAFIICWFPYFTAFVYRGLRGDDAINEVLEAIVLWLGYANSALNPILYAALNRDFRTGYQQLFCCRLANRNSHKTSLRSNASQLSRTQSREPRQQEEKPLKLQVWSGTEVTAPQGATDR
Chain of Adenosine receptor A2a (P29274 whole entry): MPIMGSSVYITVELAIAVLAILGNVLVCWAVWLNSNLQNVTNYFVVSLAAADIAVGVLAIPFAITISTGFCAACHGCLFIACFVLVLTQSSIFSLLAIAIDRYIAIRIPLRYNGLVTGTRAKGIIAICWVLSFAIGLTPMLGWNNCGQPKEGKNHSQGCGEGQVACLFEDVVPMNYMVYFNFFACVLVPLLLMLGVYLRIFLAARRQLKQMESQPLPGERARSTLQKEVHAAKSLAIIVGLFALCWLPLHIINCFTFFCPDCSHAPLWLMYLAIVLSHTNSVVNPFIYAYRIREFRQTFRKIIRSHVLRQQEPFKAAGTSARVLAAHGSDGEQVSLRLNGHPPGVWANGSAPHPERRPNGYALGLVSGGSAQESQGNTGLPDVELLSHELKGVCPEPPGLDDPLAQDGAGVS
Chain of Neuronal acetylcholine receptor subunit alpha-4 (P43681 whole entry): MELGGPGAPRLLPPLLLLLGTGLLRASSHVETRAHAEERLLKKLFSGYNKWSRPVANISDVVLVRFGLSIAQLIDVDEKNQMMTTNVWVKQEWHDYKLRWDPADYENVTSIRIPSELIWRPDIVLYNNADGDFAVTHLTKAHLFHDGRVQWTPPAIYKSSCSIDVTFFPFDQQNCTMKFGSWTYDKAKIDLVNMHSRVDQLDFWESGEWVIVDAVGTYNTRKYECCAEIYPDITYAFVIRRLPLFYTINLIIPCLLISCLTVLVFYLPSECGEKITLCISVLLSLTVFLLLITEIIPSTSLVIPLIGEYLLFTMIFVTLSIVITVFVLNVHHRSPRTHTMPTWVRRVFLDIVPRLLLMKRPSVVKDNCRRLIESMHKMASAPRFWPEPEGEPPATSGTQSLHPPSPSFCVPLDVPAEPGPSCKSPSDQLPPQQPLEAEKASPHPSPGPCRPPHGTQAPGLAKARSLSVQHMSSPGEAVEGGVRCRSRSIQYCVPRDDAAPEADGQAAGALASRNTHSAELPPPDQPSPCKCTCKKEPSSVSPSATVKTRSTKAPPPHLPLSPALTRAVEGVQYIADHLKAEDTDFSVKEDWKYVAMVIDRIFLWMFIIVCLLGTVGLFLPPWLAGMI
Chain of Motilin receptor (O43193 whole entry): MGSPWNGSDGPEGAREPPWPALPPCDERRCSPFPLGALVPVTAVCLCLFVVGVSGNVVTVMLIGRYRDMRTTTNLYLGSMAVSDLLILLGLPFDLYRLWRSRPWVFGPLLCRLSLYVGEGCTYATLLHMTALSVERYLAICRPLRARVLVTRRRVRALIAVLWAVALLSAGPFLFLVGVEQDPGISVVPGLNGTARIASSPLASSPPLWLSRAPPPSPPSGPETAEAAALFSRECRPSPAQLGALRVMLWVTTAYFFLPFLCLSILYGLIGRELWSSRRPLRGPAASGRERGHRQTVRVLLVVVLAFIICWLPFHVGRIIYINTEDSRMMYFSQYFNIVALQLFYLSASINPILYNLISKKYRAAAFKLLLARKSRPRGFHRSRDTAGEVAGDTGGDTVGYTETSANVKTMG
Chain of 3',5'-cyclic-AMP phosphodiesterase 4D (Q08499 whole entry): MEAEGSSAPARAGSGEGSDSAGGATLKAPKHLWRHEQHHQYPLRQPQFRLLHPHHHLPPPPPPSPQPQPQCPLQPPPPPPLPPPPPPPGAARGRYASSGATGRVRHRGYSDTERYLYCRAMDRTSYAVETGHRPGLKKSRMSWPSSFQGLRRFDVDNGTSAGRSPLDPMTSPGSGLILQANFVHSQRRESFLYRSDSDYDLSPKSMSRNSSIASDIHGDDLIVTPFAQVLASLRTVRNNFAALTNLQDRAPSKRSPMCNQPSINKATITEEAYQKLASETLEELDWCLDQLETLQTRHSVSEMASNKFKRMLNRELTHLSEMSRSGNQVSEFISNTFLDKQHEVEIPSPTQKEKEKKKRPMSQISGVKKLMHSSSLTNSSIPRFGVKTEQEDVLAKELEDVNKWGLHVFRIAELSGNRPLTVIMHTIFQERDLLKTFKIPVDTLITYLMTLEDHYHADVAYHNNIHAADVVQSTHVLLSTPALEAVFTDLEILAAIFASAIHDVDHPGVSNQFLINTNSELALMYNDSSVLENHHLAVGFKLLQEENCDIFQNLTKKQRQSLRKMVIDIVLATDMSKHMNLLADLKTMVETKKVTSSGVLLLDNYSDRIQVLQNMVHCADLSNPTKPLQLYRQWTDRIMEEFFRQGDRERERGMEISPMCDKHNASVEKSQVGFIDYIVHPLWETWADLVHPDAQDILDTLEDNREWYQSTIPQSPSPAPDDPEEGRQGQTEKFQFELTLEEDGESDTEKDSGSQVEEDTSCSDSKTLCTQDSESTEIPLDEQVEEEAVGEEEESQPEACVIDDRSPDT
Chain of Sodium-dependent noradrenaline transporter (P23975 whole entry): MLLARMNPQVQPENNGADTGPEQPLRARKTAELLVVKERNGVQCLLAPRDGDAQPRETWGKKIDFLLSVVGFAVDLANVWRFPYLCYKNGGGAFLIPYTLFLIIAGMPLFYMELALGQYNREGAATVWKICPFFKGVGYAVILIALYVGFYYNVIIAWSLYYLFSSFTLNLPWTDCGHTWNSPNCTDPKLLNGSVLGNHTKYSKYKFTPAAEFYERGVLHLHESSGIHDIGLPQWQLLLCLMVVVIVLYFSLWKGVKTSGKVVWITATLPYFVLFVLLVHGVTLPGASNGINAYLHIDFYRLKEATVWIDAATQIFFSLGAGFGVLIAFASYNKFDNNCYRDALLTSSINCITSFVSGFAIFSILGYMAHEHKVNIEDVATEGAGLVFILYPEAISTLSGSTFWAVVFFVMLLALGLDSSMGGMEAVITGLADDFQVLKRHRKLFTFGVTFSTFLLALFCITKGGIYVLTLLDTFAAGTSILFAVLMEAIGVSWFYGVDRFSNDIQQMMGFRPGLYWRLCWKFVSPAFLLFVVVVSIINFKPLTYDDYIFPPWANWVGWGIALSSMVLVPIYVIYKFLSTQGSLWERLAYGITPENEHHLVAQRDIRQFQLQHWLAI
Chain of Growth hormone secretagogue receptor type 1 (Q92847 whole entry): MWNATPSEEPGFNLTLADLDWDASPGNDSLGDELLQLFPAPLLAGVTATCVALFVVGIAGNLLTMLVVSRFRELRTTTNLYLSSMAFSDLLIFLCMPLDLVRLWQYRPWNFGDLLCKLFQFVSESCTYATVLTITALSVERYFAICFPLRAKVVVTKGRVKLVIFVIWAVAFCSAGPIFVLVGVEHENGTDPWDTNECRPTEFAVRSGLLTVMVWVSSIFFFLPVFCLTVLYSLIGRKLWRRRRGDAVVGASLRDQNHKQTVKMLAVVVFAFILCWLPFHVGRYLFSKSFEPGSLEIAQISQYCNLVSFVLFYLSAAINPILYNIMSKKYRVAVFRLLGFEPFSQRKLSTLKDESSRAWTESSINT

SMILES | AC50 (Histamine H2 receptor) | AC50 [1] | AC50 (Adenosine receptor A2a) | AC50 [2] | AC50 (Motilin receptor) | AC50 [3] | AC50 [4] | AC50 (Adenosine receptor A3) | AC50 [5] | AC50 [6] | AC50 [7] | AC50 (Thromboxane A2 receptor) | AC50 [8]
CCOC(=O)C1=C(C)NC(C)=C(C(=O)OC)C1c1cccc([N+](=O)[O-])c1 (configuration not stated) [NITRENDIPINE] | > 10 µM | > 10 µM | > 30 µM | > 30 µM | > 10 µM | > 30 µM | > 30 µM | > 30 µM | > 10 µM | > 30 µM | > 30 µM | > 30 µM | > 30 µM
Cc1noc(NS(=O)(=O)c2ccc(N)cc2)c1C [SULFISOXAZOLE] | > 10 µM | > 10 µM | > 10 µM | > 30 µM | > 10 µM | > 10 µM | > 10 µM | > 10 µM | > 10 µM | > 30 µM | > 10 µM | > 10 µM | > 10 µM
CCCCC1C(=O)N(c2ccccc2)N(c2ccccc2)C1=O [PHENYLBUTAZONE] | > 10 µM | > 10 µM | > 30 µM | > 30 µM | > 30 µM | > 30 µM | > 30 µM | > 30 µM | > 30 µM | > 30 µM | > 30 µM | > 30 µM | > 30 µM
C[C@H](Cc1ccc(O)c(O)c1)[C@@H](C)Cc1ccc(O)c(O)c1 [MASOPROCOL] | > 10 µM | > 30 µM | > 30 µM | 4.2 µM and 2.8 µM and 3.1 µM | > 10 µM | > 10 µM | 20.6 µM and 20 µM (2×) | 5.4 µM and 4.7 µM and 4.1 µM | > 30 µM | > 30 µM | > 10 µM | > 10 µM and 29 µM (2×) | > 10 µM
Cc1cc(C(C)(C)C)cc(C)c1CC1=NCCN1 [XYLOMETAZOLINE] | > 30 µM | 0.239 µM | > 30 µM | > 30 µM | > 30 µM | > 30 µM | > 30 µM | > 30 µM | > 30 µM | > 30 µM | > 30 µM | > 30 µM | > 30 µM
CC1OC2(CS1)CN1CCC2CC1 (configuration not stated) [CEVIMELINE] | > 30 µM | > 30 µM | > 10 µM | > 30 µM | > 10 µM | > 10 µM | > 10 µM | > 10 µM | > 10 µM | > 30 µM | > 10 µM | > 10 µM | > 10 µM
C#C[C@]1(OC(C)=O)CC[C@H]2[C@@H]3CCC4=C/C(=N/O)CC[C@@H]4[C@H]3CC[C@@]21CC [NORGESTIMATE] | > 30 µM | > 30 µM | > 30 µM | 13 µM | > 30 µM | 22 µM | 28 µM | 11 µM | > 30 µM | > 30 µM | > 30 µM | > 30 µM | > 30 µM
OC1(c2ccc(Cl)cc2)c2ccccc2C2=NCCN21 (configuration not stated) [MAZINDOL] | > 10 µM | > 30 µM | > 30 µM | > 30 µM | > 30 µM | > 30 µM | 0.027 µM | 9.6 µM | > 30 µM | > 30 µM | > 30 µM | > 30 µM | > 30 µM
CC(C(=O)O)c1ccc(-c2ccccc2)c(F)c1 (configuration not stated) [FLURBIPROFEN] | > 10 µM | > 10 µM | > 10 µM | > 30 µM | > 10 µM | > 10 µM | > 10 µM | > 10 µM | > 10 µM | > 10 µM | > 10 µM | > 10 µM | > 10 µM
Clc1ccc(C(Cn2ccnc2)OCc2ccsc2Cl)c(Cl)c1 (configuration not stated) [TIOCONAZOLE] | > 30 µM | 6.5 µM | > 30 µM | 8.7 µM | > 30 µM | > 30 µM | 20.7 µM | 6.43 µM | > 30 µM | > 30 µM | > 30 µM | 28.1 µM | 8.5 µM
Clc1ccc2c(N3CCN(CCCN4CCN(c5ccnc6cc(Cl)ccc56)CC4)CC3)ccnc2c1 [PIPERAQUINE] | > 30 µM | > 30 µM | > 30 µM | 22 µM | > 30 µM | > 30 µM | > 30 µM | > 30 µM | > 30 µM | > 30 µM | > 30 µM | > 30 µM | > 30 µM
CCCC(CCC)C(N)=O [VALPROMIDE] | > 10 µM | > 10 µM | > 30 µM | > 30 µM | > 10 µM | > 30 µM | > 30 µM | > 30 µM | > 10 µM | > 30 µM | > 30 µM | > 30 µM | > 30 µM
CC(C(=O)O)c1ccc(CC2CCCC2=O)cc1 (configuration not stated) [LOXOPROFEN] | > 30 µM | > 30 µM | > 30 µM | > 30 µM | > 30 µM | > 30 µM | > 30 µM | > 30 µM | > 30 µM | > 30 µM | > 30 µM | > 30 µM | > 30 µM
CC(=O)N[C@@H](CS)C(=O)O [ACETYLCYSTEINE] | > 30 µM | > 30 µM | > 30 µM | > 30 µM | > 30 µM | > 30 µM | > 30 µM | > 30 µM | > 30 µM | > 30 µM | > 30 µM | > 30 µM | > 30 µM
